This is an account of results in patent US20260306642A1, “STAT DEGRADERS AND USES THEREOF” (Recludix Pharma, Inc., priority 2023, published 2026).

The target of one assay is T1, STAT3 (Homo sapiens, UniProt P40763).
T1 construct: Recombinant STAT3 protein (STAT3(G127-I722))
The experiment in a line: STAT3 Fluorescence Polarization (FP) Assay. Format: binding. Here is the method: An FP assay was developed to determine IC50 values for test substances.
Recombinant STAT3 protein (STAT3(G127-I722)) at 25 nM was combined with a fluorescently labeled, phosphotyrosine peptide probe (5-FAM-GpYLPQTV-NH2) at 2 nM in FP buffer (10 mM HEPES pH 7.4, 50 mM NaCl, 1 mM EDTA, 0.05% Tween 20, 2 mM DTT). 50 μL of STAT3-probe mixture was added to serial diluted compounds in black, 96-well plates (Greiner BioOne 655076) to a final concentration of 1% DMSO. Reaction components were mixed, and FP was measured after 45-minute incubation at room temperature using a Tecan Spark multimode plate reader. FP signal (mP) was plotted against the log concentration of the test substances and IC50 values were calculated by nonlinear regression analysis using GraphPad Prism software. For STAT3 FP assay, A=≤100 nM; B=>100-1000 nM; C=>1-10 μM; and D=>10 μM.
(In fluorescence polarisation assays a small probe gives low polarisation when free and higher when bound to something large.)

The target of the next assay is T2, STAT6 (Homo sapiens, UniProt P42226).
T2 construct: Recombinant STAT6 protein (STAT6(W123-T658))
T2 sequence (P42226 123-658): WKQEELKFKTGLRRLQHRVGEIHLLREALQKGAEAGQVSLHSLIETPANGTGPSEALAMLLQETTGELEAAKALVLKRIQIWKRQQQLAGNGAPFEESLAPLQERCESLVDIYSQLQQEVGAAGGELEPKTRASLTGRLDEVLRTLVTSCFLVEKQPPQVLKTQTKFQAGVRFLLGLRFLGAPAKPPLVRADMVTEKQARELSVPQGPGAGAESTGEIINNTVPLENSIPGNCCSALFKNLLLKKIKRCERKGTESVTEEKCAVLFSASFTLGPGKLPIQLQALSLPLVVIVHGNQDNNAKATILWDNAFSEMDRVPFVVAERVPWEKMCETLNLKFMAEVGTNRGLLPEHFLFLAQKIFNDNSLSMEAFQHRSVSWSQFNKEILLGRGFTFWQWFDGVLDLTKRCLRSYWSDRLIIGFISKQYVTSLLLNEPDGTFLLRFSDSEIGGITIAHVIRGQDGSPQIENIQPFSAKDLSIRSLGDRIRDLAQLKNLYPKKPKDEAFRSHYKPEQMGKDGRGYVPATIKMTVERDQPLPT
The experiment in a line: STAT6 Fluorescence Polarization (FP) Assay. Format: binding. As to the method: An FP assay was developed to determine IC50 values for test substances. Recombinant STAT6 protein (STAT6(W123-T658)) at 250 nM was combined with a fluorescently labeled, phosphotyrosine peptide probe (5-FAM-ApYKPFQDLI-NH2) at 2 nM in FP buffer (10 mM HEPES pH 7.4, 50 mM NaCl, 1 mM EDTA, 0.05% Tween 20, 2 mM DTT). 50 μL of STAT6-probe mixture was added to serial diluted compounds in black, 96-well plates (Greiner BioOne 655076) to a final concentration of 1% DMSO. Reaction components were mixed, and FP was measured after 45-minute incubation at room temperature using a Tecan Spark multimode plate reader. FP signal (mP) was plotted against the log concentration of the test substances and IC50 values were calculated by nonlinear regression analysis using GraphPad Prism software. For STAT6 FP assay, A=≤300 nM; B=>300-3000 nM; C=>3-30 μM; and D=>30 μM.

The target in a further assay is pSTAT3 (Homo sapiens, UniProt P40763). Briefly: MSD-pSTAT-PBMC Assay (pSTAT3, IL-6 stimulated). Format: cell-based. An excerpt:
Cryopreserved Peripheral Blood Mononuclear Cells (PBMC) are from AllCells. Recombinant Human IL-4 and IL-6 are from Peprotech. Mouse monoclonal anti-STAT3 antibody, rabbit monoclonal anti-pY705-STAT3 antibody, rabbit monoclonal Anti-pY641-STAT6 antibody, and lysis buffer are from Cell Signaling Technology (CST). Mouse monoclonal anti-STAT6 antibody is from BioLegend. Assay plates, blocker, and anti-rabbit secondary antibody are from Meso Scale Discovery (MSD).
Cryopreserved PBMCs were thawed out and allowed to recover overnight in IMDM+10% heat-inactivated FBS prior to plating 50,000 (STAT3) or 25,000 (STAT6) cells per well in 96-well U-bottom tissue culture plates. Cells were treated with compound for 3 hrs, then stimulated with 10 ng/mL IL-6 (STAT3) or 1 ng/mL IL-4 (STAT6) for 10 min. Cells were then spun down and washed with ice-cold PBS prior to lysing the cell pellet with 1× lysis buffer (CST) with 1× HALT protease and phosphatase inhibitor cocktail (Thermo). Lysates were transferred to and incubated overnight at 4° C. with shaking in QuickPlex 96-well high bind assay plates (MSD) pre-coated overnight with 30 μL per well of […] mouse monoclonal anti-STAT3 antibody (STAT3) or 2 μg/mL mouse monoclonal anti-STAT6 antibody (STAT6) in 1× PBS, and pre-blocked for 1 hour with 3% Blocker-A (MSD). Captured protein in the assay plates were then washed and probed with 25 μL per well of […] rabbit monoclonal anti-pY705-STAT3 antibody (STAT3) or […] rabbit monoclonal Anti-pY641-STAT6 antibody (STAT6) in 1% Blocker-A for 1 hour at room temperature with shaking, then washed and probed with 25 ul per well of 1 ug/ml Sulfo-TAG Labeled Goat Anti-Rabbit Antibody (MSD) in 1% Blocker-A for 1 hour at room temperature with shaking. Assay plates were then washed and 150 μL of 1× Read Buffer-T (MSD) was added to each well prior to reading on an SQ120 MSD Plate Reader. Assay signal from each sample was subtracted by the signal from unstimulated control wells and normalized to DMSO control wells. IC50 values were calculated using Graph Pad Prism Dose-Response Nonlinear Regression with variable slope. For both pSTAT3 and pSTAT6 A=≤100 nM; B=>100-1000 nM; C=>1000-3000 nM; and D=>3 μM.

[1] abbreviates: compound 3 hrs, then 10 ng/mL IL-6 10 min, pY705-STAT3, read-out: pSTAT3 IC50.

Where two headings read alike, the source gives them in different places.

T1 sequence (P40763 127-722): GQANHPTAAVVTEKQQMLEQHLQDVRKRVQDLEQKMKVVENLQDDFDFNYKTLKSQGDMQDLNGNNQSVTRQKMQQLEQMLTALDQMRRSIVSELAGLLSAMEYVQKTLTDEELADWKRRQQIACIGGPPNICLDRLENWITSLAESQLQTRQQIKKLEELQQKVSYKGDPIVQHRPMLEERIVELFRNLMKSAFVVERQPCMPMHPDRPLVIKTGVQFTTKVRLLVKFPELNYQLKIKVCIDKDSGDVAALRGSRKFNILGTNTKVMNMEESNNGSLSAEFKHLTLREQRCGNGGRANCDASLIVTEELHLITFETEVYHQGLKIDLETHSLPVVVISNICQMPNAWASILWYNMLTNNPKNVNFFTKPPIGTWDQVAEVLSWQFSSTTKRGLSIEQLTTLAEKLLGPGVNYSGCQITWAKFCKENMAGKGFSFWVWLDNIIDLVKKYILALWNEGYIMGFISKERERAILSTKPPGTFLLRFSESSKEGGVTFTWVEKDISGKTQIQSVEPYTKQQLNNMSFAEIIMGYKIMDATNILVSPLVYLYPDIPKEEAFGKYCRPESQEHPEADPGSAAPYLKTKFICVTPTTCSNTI
Sequence of pSTAT3 (P40763 whole entry): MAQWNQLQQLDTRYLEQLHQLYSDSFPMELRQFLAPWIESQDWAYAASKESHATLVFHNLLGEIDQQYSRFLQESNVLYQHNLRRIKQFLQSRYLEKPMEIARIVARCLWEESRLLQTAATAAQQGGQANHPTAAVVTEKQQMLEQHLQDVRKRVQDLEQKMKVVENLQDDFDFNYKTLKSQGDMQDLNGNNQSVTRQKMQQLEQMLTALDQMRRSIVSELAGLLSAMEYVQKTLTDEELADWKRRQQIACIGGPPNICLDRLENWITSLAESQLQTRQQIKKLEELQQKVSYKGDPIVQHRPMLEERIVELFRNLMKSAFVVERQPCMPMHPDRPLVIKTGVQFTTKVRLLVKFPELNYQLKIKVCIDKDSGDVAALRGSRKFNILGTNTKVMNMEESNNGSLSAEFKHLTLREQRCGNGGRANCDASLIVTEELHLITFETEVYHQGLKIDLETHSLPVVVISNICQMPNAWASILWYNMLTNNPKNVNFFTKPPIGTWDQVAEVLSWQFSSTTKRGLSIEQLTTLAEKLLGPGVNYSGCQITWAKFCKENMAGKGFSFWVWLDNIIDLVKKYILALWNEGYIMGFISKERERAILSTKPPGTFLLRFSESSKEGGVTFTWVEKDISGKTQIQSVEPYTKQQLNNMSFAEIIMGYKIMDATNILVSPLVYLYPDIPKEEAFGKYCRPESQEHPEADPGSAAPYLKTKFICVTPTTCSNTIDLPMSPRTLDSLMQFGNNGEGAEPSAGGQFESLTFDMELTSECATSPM

As to `O=C1CCC(c2ccc(OCCOCCOc3ccncc3C3CN(C(=O)[C@@H]4CC[C@@H]5CCC[C@H](NC(=O)c6cc7cc(C(F)(F)P(=O)(O)O)ccc7s6)C(=O)N54)C3)cc2)C(=O)N1` (stereo partly drawn) [Compound 11, ((2-(((3S,6S,9aS)-3-(3-(4-(2-(2-(4-(2,6-dioxopiperidin-3-yl)phenoxy)ethoxy)ethoxy)pyridin-3-yl)azetidine-1-carbonyl)-5-oxooctahydro-1H-pyrrolo[1,2-a]azepin-6-yl)carbamoyl)benzo[b]thiophen-5-yl)difluoromethyl)phosphonic acid], the IC50 on STAT3 was less than 0.1 µM; against STAT6 it was 3 to 30 µM; at pSTAT3 (setting [1]), greater than 3 µM.

For the compound `Cn1c(=O)n(C2CCC(=O)NC2=O)c2ccc(C#CCCC3CCN(c4ccncc4C4CN(C(=O)[C@@H]5CC[C@@H]6CCC[C@H](NC(=O)c7cc8cc([C@H](F)P(=O)(O)O)ccc8s7)C(=O)N65)C4)CC3)cc21` (stereo partly drawn) [Compound 37, ((1R)-(2-(((3S,6S,9aS)-3-(3-(4-(4-(4-(1-(2,6-dioxopiperidin-3-yl)-3-methyl-2-oxo-2,3-dihydro-1H-benzo[d]imidazol-5-yl)but-3-yn-1-yl)piperidin-1-yl)pyridin-3-yl)azetidine-1-carbonyl)-5-oxooctahydro-1H-pyrrolo[1,2-a]azepin-6-yl)carbamoyl)benzo[b]thiophen-5-yl)fluoromethyl)phosphonic acid], the IC50 was less than 0.1 µM against STAT3, 3 to 30 µM against STAT6 and 0.1 to 1 µM on pSTAT3 (setting [1]).

For the compound `Cc1ncsc1-c1ccc(CNC(=O)[C@@H]2C[C@@H](O)CN2C(=O)[C@@H](NC(=O)C2CCN(c3ccncc3C3CN(C(=O)[C@@H]4CC[C@@H]5CCC[C@H](NC(=O)c6cc7cc(C(F)(F)P(=O)(O)O)ccc7s6)C(=O)N54)C3)CC2)C(C)(C)C)cc1` [Compound 8, (difluoro(2-(((3S,6S,9aS)-3-(3-(4-(4-(((S)-1-((2S,4R)-4-hydroxy-2-((4-(4-methylthiazol-5-yl)benzyl)carbamoyl)pyrrolidin-1-yl)-3,3-dimethyl-1-oxobutan-2-yl)carbamoyl)piperidin-1-yl)pyridin-3-yl)azetidine-1-carbonyl)-5-oxooctahydro-1H-pyrrolo[1,2-a]azepin-6-yl)carbamoyl)benzo[b]thiophen-5-yl)methyl)phosphonic acid], the IC50 against STAT3 was less than 0.1 µM; on STAT6, 0.3 to 3 µM; at pSTAT3 (setting [1]), 1 to 3 µM.

Consider `Cc1ncsc1-c1ccc(CNC(=O)[C@@H]2C[C@@H](O)CN2C(=O)[C@@H](NCCCCOc2ccncc2C2CN(C(=O)[C@@H]3CC[C@@H]4CCC[C@H](NC(=O)c5cc6cc(C(F)(F)P(=O)(O)O)ccc6s5)C(=O)N43)C2)C(C)(C)C)cc1` [Compound 2, (difluoro(2-(((3S,6S,9aS)-3-(3-(4-(4-(((S)-1-((2S,4R)-4-hydroxy-2-((4-(4-methylthiazol-5-yl)benzyl)carbamoyl)pyrrolidin-1-yl)-3,3-dimethyl-1-oxobutan-2-yl)amino)butoxy)pyridin-3-yl)azetidine-1-carbonyl)-5-oxooctahydro-1H-pyrrolo[1,2-a]azepin-6-yl)carbamoyl)benzo[b]thiophen-5-yl)methyl)phosphonic acid], for which the IC50 against STAT3 is less than 0.1 µM; against STAT6, 3 to 30 µM; at pSTAT3 (setting [1]) it was greater than 3 µM.

Take `O=C(COc1cccc2c1C(=O)N(C1CCC(=O)NC1=O)C2=O)NCCOCCOCC(=O)NC1(c2ccccn2)CN(C(=O)[C@@H]2CC[C@H]3CCCC[C@H](NC(=O)c4cc5cc(C(F)(F)P(=O)(O)O)ccc5s4)C(=O)N32)C1` (stereo partly drawn) [Compound 32, ((2-(((3S,6S,10aR)-3-(3-(2-(2-(2-(2-((2-(2,6-dioxopiperidin-3-yl)-1,3-dioxoisoindolin-4-yl)oxy)acetamido)ethoxy)ethoxy)acetamido)-3-(pyridin-2-yl)azetidine-1-carbonyl)-5-oxodecahydropyrrolo[1,2-a]azocin-6-yl)carbamoyl)benzo[b]thiophen-5-yl)difluoromethyl)phosphonic acid]: the IC50 against STAT3 is less than 0.1 µM; on STAT6 it was 3 to 30 µM; at pSTAT3 (read-out: pSTAT3 IC50, compound 3 hrs, then 10 ng/mL IL-6 10 min, pY705-STAT3), greater than 3 µM.

On to `Cn1c(=O)n(C2CCC(=O)NC2=O)c2ccc(C#CCCC3CCN(c4ccncc4C4CN(C(=O)[C@@H]5CC[C@@H]6CCC[C@H](NC(=O)c7cc8cc(C(F)P(=O)(O)O)ccc8s7)C(=O)N65)C4)CC3)cc21` (stereo partly drawn) [Compound 36, ((2-(((3S,6S,9aS)-3-(3-(4-(4-(4-(1-(2,6-dioxopiperidin-3-yl)-3-methyl-2-oxo-2,3-dihydro-1H-benzo[d]imidazol-5-yl)but-3-yn-1-yl)piperidin-1-yl)pyridin-3-yl)azetidine-1-carbonyl)-5-oxooctahydro-1H-pyrrolo[1,2-a]azepin-6-yl)carbamoyl)benzo[b]thiophen-5-yl)fluoromethyl)phosphonic acid], for which the IC50 against STAT3 is less than 0.1 µM; against STAT6, greater than 30 µM; on pSTAT3 (setting [1]), 0.1 to 1 µM.

As to `O=C1CCC(c2ccc(OCC(=O)N3CCN(c4ccncc4C4CN(C(=O)[C@@H]5CC[C@@H]6CCC[C@H](NC(=O)c7cc8cc(C(F)(F)P(=O)(O)O)ccc8s7)C(=O)N65)C4)CC3)cc2)C(=O)N1` (stereo partly drawn) [Compound 28, ((2-(((3S,6S,9aS)-3-(3-(4-(4-(2-(4-(2,6-dioxopiperidin-3-yl)phenoxy)acetyl)piperazin-1-yl)pyridin-3-yl)azetidine-1-carbonyl)-5-oxooctahydro-1H-pyrrolo[1,2-a]azepin-6-yl)carbamoyl)benzo[b]thiophen-5-yl)difluoromethyl)phosphonic acid], the IC50 against STAT3 was less than 0.1 µM; on STAT6 it was 3 to 30 µM; on pSTAT3 (setting [1]) it was greater than 3 µM.
